Laboratory results published in publication PMC4453016, “Novel Bifunctional Cyclic Chelator for ^89Zr Labeling–Radiolabeling and Targeting Properties of RGD Conjugates” (Molecular Pharmaceutics, 2015).
“And” between values parts separate entries of the source, which are not always exact repeats. Equal values may be shown once.

Key:
[1] = Transchelation study with 1000-fold molar excess of TAFC or DFO (RP-HPLC); assay type: physicochemical; conditions: for % intact starting species by incubation time: RT, n = 3
Protocol: [^89Zr]DFO and [^89Zr]TAFC (50 μL each) were mixed with a 1000-fold molar excess of either TAFC or DFO for 7 days at RT. At selected time points aliquots of the solutions were analyzed directly via RP-HPLC. ([^89Zr]DFO tR = 4.8 min; [^89Zr]TAFC tR = 5.9 min). The transchelation was determined by the ratio of [^89Zr]DFO and [^89Zr]TAFC. Three replicates were analyzed for each radioligand.

[2] = Stability assay in PBS and human serum; assay type: physicochemical; conditions: period of 7 days, 37 °C; no demetalation was observed
Protocol: (§1) Determination of the stability of [^89Zr]DFO, [^89Zr]TAFC, and [^89Zr]FSC-RGD conjugates was carried out by incubating the radioligands in PBS, 1000-fold molar excess of EDTA solution with different pH (pH 7 and pH 6; radioligand vs EDTA: 25 μM vs 25 mM) as well as in human serum for 7 days at 37 °C, respectively. At selected time points three aliquots of PBS and EDTA solution were analyzed directly via ITLC, while the three serum aliquots were mixed with 500 μL of CH3CN, vortexed, and centrifuged at 20,000 rcf for 2 min prior to analysis.

[3] = Protein binding assay in fresh human serum (size exclusion spin column); conditions: 37 °C, incubation time 168 h
[4] = Stability assay in 1000-fold molar excess of EDTA solution (ITLC); assay type: physicochemical; conditions: for transchelation in EDTA solution: 1000-fold molar excess of EDTA; for % intact starting species by incubation time: competitor EDTA 1000-fold excess, 37 °C, n = 3
Protocol: as §1

[5] = Distribution coefficient (logD), octanol/PBS; conditions: pH 7.4
[6] = Biodistribution of [^89Zr]TAFC in healthy mice; assay type: in vivo, BALB/c mice; conditions: normal mice, i.v., 6 h p.i., n = 4
Protocol: For the evaluation of biodistribution, four healthy female BALB/c mice (Charles River Laboratories, Sulzfeld, GER) were intravenously injected with [^89Zr]TAFC (∼1.5 MBq/mouse, ∼4 μg of precursor) into the tail vein and sacrificed at 6 h postinjection (p.i.). For the evaluation of tumor uptake of [^89Zr]FSC(succ-RGD)3 female, athymic BALB/c nude mice (Charles River Laboratories) were used. For the induction of tumor xenografts mice were injected subcutaneously with 5 × 10^6 αvβ3 integrin positive M21 cells into the right hind limb and with 5 × 10^6 αvβ3 integrin negative M21-L cells (negative control) into the left hind limb of the same mouse (n = 4). The tumors were allowed to grow until they had reached a volume of 0.3 to 0.6 cm^3. On the day of the experiment [^89Zr]FSC(succ-RGD)3 (∼0.5 MBq/mouse, ∼0.5 μg of peptide) was intravenously injected in the lateral tail vein. Mice were sacrificed by cervical dislocation at 1, 2, and 4 h after injection. Organs (spleen, pancreas, stomach, intestine, kidney, liver, heart, and lung), blood, muscle tissue, bone, and tumors were dissected and weighted. As a comparison, four tumor-bearing mice were intravenously injected in the tail vein with [^68Ga]FSC(succ-RGD)3 (∼0.5 MBq/mouse, ∼0.5 μg of precursor) and sacrificed at 1 h p.i. Activity of the different samples was measured in the gamma counter. Results were expressed as percentage of injected dose per gram tissue (% ID/g).

Row | stability in PBS and human serum [2] | protein binding (%) [3] [%] | transchelation in EDTA solution ([4]; pH 7, after 7 days, ITLC) | % intact starting species by incubation time ([4]; pH 6, 1 h) [%] | % intact starting species by incubation time ([4]; pH 6, 4 h) [%] | % intact starting species by incubation time ([4]; pH 6, 1 d) [%] | % intact starting species by incubation time ([4]; pH 6, 3 d) [%] | % intact starting species by incubation time ([4]; pH 6, 5 d) [%] | % intact starting species by incubation time ([4]; pH 7, 1 h) [%] | % intact starting species by incubation time ([4]; pH 7, 4 h) [%] | % intact starting species by incubation time ([4]; pH 7, 1 d) [%] | % intact starting species by incubation time ([4]; pH 7, 3 d) [%] | % intact starting species by incubation time ([4]; pH 7, 5 d) [%] | % intact starting species by incubation time ([4]; pH 7, 7 d) [%] | logD [5] | Compound | further results
1 | high stability | 8.7 ± 1.0 | ~60% | 94.6 ± 0.4 | 63.5 ± 3.6 | 38.2 ± 8.4 | 6.4 ± 2.0 | 6.0 ± 1.8 | 95.5 ± 0.5 | 76.0 ± 1.0 | 55.4 ± 3.2 | 41.0 ± 5.2 | 43.3 ± 2.5 | 42.2 ± 2.3 | -3 | CC(=O)N(O)CCCCCNC(=O)CCC(=O)N(O)CCCCCNC(=O)CCC(=O)N(O)CCCCCN [[^89Zr]DFO, desferrioxamine B, metal not drawn, reference compound] | % intact starting species by incubation time ([1]; competitor TAFC 1000-fold excess, pH 6, 1 h): 0.0 ± 0.0%; fraction transchelated in 1000-fold molar excess of TAFC ([1]; within 1 h): 100%; transchelation in EDTA solution ([4]; pH 6, after 3 days): more than 90%
2 | high stability | 6.8 ± 0.5 | no transchelation | 99.0 ± 0.1 | 98.1 ± 0.2 | 96.0 ± 0.6 | 94.7 ± 0.3 | 95.9 ± 0.3 | 99.6 ± 0.1 | 99.6 ± 0.1 | 99.3 ± 0.2 | 96.9 ± 0.3 | 98.3 ± 0.1 | 97.2 ± 0.2 | -2 | CC(=O)NC1CCCN(O)C(=O)/C=C(/C)CCOC(=O)C(NC(C)=O)CCCN(O)C(=O)/C=C(/C)CCOC(=O)C(NC(C)=O)CCCN(O)C(=O)/C=C(/C)CCOC1=O (centres unmarked) [[^89Zr]TAFC, triacetylfusarinine C, metal not drawn] | % intact starting species by incubation time ([1]; competitor DFO 1000-fold excess, pH 6, 1 h): 96.7 ± 0.2%; % intact starting species by incubation time ([1]; competitor DFO 1000-fold excess, pH 6, 4 h): 91.9 ± 0.3%; % intact starting species by incubation time ([1]; competitor DFO 1000-fold excess, pH 6, 1 d): 74.2 ± 3.0%; % intact starting species by incubation time ([1]; competitor DFO 1000-fold excess, pH 6, 3 d): 53.0 ± 4.1%; % intact starting species by incubation time ([1]; competitor DFO 1000-fold excess, pH 6, 5 d): 43.3 ± 3.5%; % intact starting species by incubation time ([1]; competitor DFO 1000-fold excess, pH 6, 7 d): 40% and 39.8 ± 2.0%; blood activity [6]: 0.05 ± 0.01 % ID/g; renal retention (kidney) [6]: 0.86 ± 0.48 % ID/g; uptake of bone [6]: 0.04 ± 0.02 % ID/g; transchelation in an EDTA challenging experiment ([4]; after 7 days): 3–5%; % intact starting species by incubation time ([4]; pH 6, 7 d): 94.4 ± 0.5%
